Where two headings read alike, the source gives them in different places.
Experiments:
[1] = tested on: mouse neuroblastoma cell line neuro-2a; assay: Activity on neuro-2a, cells with outgrown neurites; type: cell-based
Method in brief: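 Mouse neuro-2a cells in DMEM with FCS exposed to compounds for 24 h (up to 6 concentrations, triplicate runs), glutaraldehyde-fixed and methylene blue-stained. Proportion of cells bearing a neurite at least twice the cell's long diameter counted microscopically over ≥200 cells.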

[2] = Acute toxicity, mouse; type: in vivo; conditions: in vivo, po, read-out: Presumed LD50
Experimental: (§1) The acute toxicity of the compounds of the invention was examined by the following method.
(§2) Male ddy-strain 5-week old mice and male Wistar-strain 8 week old rats, five per group, were used as experimental animals. Each of the compounds was dissolved in saline and administered perorally, and the toxicity of the compound was assessed 24 hours after the administration.

[3] = tested on: mice; assay: Acute toxicity, mouse; type: in vivo; conditions: 24 hours
Experimental: as §1, §2

[4] = tested on: rats with crushed sciatic nerves; assay: Curative effect on rats with crushed sciatic nerves; type: in vivo, rat (male Wistar)
Experimental: Curative effect on rats with crushed sciatic nerves:
The curing effect of the compound (I) of the invention was tested on rats having crushed scietic nerves as a model of peripheral nervous disorder using (1) a change in the action of the hind paw with the crushed sciatic nerves and (2) a change in the weight of the muscle as an index of the course of degeneration and regeneartion of peripheral nerves.
In the experiment, male Wistar rats (6 weeks old), seven per group, were used. The sciatic nerves were crushed by a method similar to the method of Yamatsu et al. (see Kiyomi Yamatsu, Takenori Kaneko, Akifumi Kitahara and Isao Ohkawa, Journal of Japanese Pharmacological Society, 72, 259-268 (1976) and the method of Hasegawa et al. (see Kazuo Hasegawa, Naoji Mikuni and Yutaka Sakai, Journal of Japanese Pharmacological Society, 74, 721-734 (1978). Specifically, under anesthesia with pentobarbital (40 mg/kg, i.p.), the left side sciatic nerve was exposed at the femur and that site of the exposed scietic nerve which was 5 mm to the center from the branched part between the N. tibialis and the N. suralis was crushed using a modified artery, klomme, having a width of 2 mm and a gap of 0.1 mm. After the operation, the rats were assigned to the test groups at random.
Compound No. 408 was selected as the compound (I) of the invention and intraperitoneally administered to the rats once a day from the day of operation to the 22nd day. A group to which mecobalamin (made by Gedeon Richter Ltd.) was administered and a group to which 0.9% saline was administered were used as controls. The following items were measured with the lapse of time (on the 1st, 4th, 7th, 10th, 14th, 17th, 21st, and 23rd days after the crushing of the scietic nerves).
(1) Change in the action of the side of the hind paw with the crushed scietic nerve:
By a method similar to the method of Hasegawa [Hasegawa, K., Experientia, 34, 750-751 (1978)], the distance between the first and fifth digits of the hind paw was measured.
The ratio of the measured distance to the normal distance was calculated and expressed in percentage (%).
(2) Change in the weight of muscle
It is known that removal of a nerve or its disorder causes atrophy of the muscle which is under its control, and the atrophy is gradually cured by re-control by the nerve. For this reason, a change in the weight of the muscle, which is quantitative, was selected as an index. Twenty-three days after the operation, the soleus muscles of both sides of paws were extracted under anesthesia with pentobarbital, and their weights were measured. The ratio of the weight of the soleus muscle on the crushed side to that of normal side was calculated and expressed in percentage (%).

[5] = Table 3 Run No. 4, 0.1 mM, control 3.1 ± 0.2
[6] = Table 3 Run No. 4, 0.5 mM, control 3.1 ± 0.2
[7] = Table 3 second Run No. 5, 0.3 mM, control 4.5 ± 0.3
[8] = Table 3 second Run No. 5, 0.5 mM, control 4.5 ± 0.3

CN1C(=O)Cc2cnc(N3CCNCC3)nc21 [Compound 406]
Cells having neurites with a length at least twice the long diameter of cell/total number of cells [1, 5]: 16.2 ± 3.7%
Cells having neurites with a length at least twice the long diameter of cell/total number of cells ([1]; Table 3 Run No. 4, 0.3 mM, control 3.1 ± 0.2): 29.9 ± 2.6%
Cells having neurites with a length at least twice the long diameter of cell/total number of cells [1, 6]: 44.8 ± 0.8%
Cells having neurites with a length at least twice the long diameter of cell/total number of cells ([1]; Table 3 Run No. 7, 0.1 mM, control 2.5 ± 0.7): 10.3 ± 1.6%
Cells having neurites with a length at least twice the long diameter of cell/total number of cells ([1]; Table 3 Run No. 7, 0.3 mM, control 2.5 ± 0.7): 22.6 ± 2.2%
Cells having neurites with a length at least twice the long diameter of cell/total number of cells ([1]; Table 3 Run No. 7, 0.5 mM, control 2.5 ± 0.7): 40.2 ± 3.4%
Cells having neurites with a length at least twice the long diameter of cell/total number of cells ([1]; Table 3 second Run No. 5, 0.03 mM, control 4.5 ± 0.3): 7.6 ± 1.8%
Cells having neurites with a length at least twice the long diameter of cell/total number of cells [1, 7]: 18.4 ± 3.0%
Cells having neurites with a length at least twice the long diameter of cell/total number of cells [1, 8]: 32.4 ± 4.3%
LD50 at 24 h ([2]; Table 7, p.o.): > 1000 mg/kg
Number of dead animals/number of test animals ([3]; Table 7, 1000 mg/kg p.o., 1000 mg/kg): 1/5

CCOC(=O)c1cnc(N2CCNCC2)nc1C(=O)OCC [Compound 144]
Cells having neurites with a length at least twice the long diameter of cell/total number of cells ([1]; Table 3 Run No. 2, 0.1 mM, control 1.9 ± 0.9): 9.9 ± 1.5%
Cells having neurites with a length at least twice the long diameter of cell/total number of cells ([1]; Table 3 Run No. 2, 0.3 mM, control 1.9 ± 0.9): 19.4 ± 3.2%
LD50 at 24 h ([2]; Table 6, p.o.): 550 to 1000 mg/kg
Number of dead animals/number of test animals ([3]; Table 6, 300 mg/kg p.o.): 0/5
Number of dead animals/number of test animals ([3]; Table 6, 500 mg/kg p.o.): 0/5
Number of dead animals/number of test animals ([3]; Table 6, 1000 mg/kg p.o.): 3/5

C/C1=C2/[N-][C@H]([C@H](CC(N)=O)[C@@]2(C)CCC(=O)NC[C@@H](C)OP(=O)([O-])O[C@H]2[C@@H](O)[C@@H](n3cnc4cc(C)c(C)cc43)O[C@@H]2CO)[C@]2(C)N=C(/C(C)=C3N=C(/C=C4N=C1[C@@H](CCC(N)=O)C\4(C)C)[C@@H](CCC(N)=O)[C@]\3(C)CC(N)=O)[C@@H](CCC(N)=O)[C@]2(C)CC(N)=O.[CH3-].[Co+3] [Mecobalamin, mecobalamin, reference compound]
Rate of recovery of the interdigit distance ([4]; 21st day, 0.5 mg/kg ip, saline 62.0 ± 2.4, ***P < 0.001): 79.1 ± 2.6%
Rate of recovery of the interdigit distance ([4]; 23rd day, 0.5 mg/kg ip, saline 71.1 ± 3.4, **P < 0.01): 88.3 ± 4.0%
interdigit distance, recovery versus saline ([4]; in words, 21st day): apparent tendency to quicker recovery
Rate of recovery in muscle weight ([4]; soleus muscle, 23rd day, 0.5 mg/kg ip, saline 51.8 ± 1.2): 55.0 ± 3.5%

CCn1cc(C=O)c2nc(N3CCNCC3)ncc2c1=O [Compound 744]
LD50 at 24 h ([2]; Table 6, p.o.): 550 to 1000 mg/kg
Number of dead animals/number of test animals ([3]; Table 6, 500 mg/kg p.o.): 0/5
Number of dead animals/number of test animals ([3]; Table 6, 1000 mg/kg p.o.): 3/5

COCCN1C(=O)Cc2cnc(N3CCNCC3)nc21 [Compound 428]
Cells having neurites with a length at least twice the long diameter of cell/total number of cells ([1]; Table 3 Run No. 3, 0.03 mM, control 3.9 ± 0.3): 6.7 ± 1.5%
Cells having neurites with a length at least twice the long diameter of cell/total number of cells ([1]; Table 3 Run No. 3, 0.3 mM, control 3.9 ± 0.3): 17.3 ± 0.8%
Cells having neurites with a length at least twice the long diameter of cell/total number of cells ([1]; Table 3 Run No. 3, 1 mM, control 3.9 ± 0.3): 30.1 ± 2.4%
Cells having neurites with a length at least twice the long diameter of cell/total number of cells [1, 5]: 13.7 ± 2.1%
Cells having neurites with a length at least twice the long diameter of cell/total number of cells [1, 6]: 27.2 ± 3.1%
Cells having neurites with a length at least twice the long diameter of cell/total number of cells ([1]; Table 3 Run No. 4, 1 mM, control 3.1 ± 0.2): 29.1 ± 2.4%
Cells having neurites with a length at least twice the long diameter of cell/total number of cells [1, 7]: 9.8 ± 2.3%
Cells having neurites with a length at least twice the long diameter of cell/total number of cells [1, 8]: 14.1 ± 1.5%
Cells having neurites with a length at least twice the long diameter of cell/total number of cells ([1]; Table 3 second Run No. 5, 1 mM, control 4.5 ± 0.3): 15.6 ± 1.0%
LD50 at 24 h ([2]; Table 7, p.o.): > 1000 mg/kg
Number of dead animals/number of test animals ([3]; Table 7, 1000 mg/kg p.o.): 0/5

CCCn1ccc2nc(N3CCNCC3)ncc2c1=O [Compound 715]
LD50 at 24 h ([2]; Table 6, p.o.): 550 to 1000 mg/kg
Number of dead animals/number of test animals ([3]; Table 6, 300 mg/kg p.o.): 0/5
Number of dead animals/number of test animals ([3]; Table 6, 500 mg/kg p.o.): 0/5
Number of dead animals/number of test animals ([3]; Table 6, 1000 mg/kg p.o.): 4/5

From patent publication US4959368A, “Therapeutic agent for neurological diseases” (Mitsui Petrochemical Industries Ltd., priority 1986, dated 1990)
